From ChEMBL document CHEMBL1681750, “Cofactor-type inhibitors of inosine monophosphate dehydrogenase via modular approach: targeting the pyrophosphate binding sub-domain” (Bioorg Med Chem, 2011) come the findings set out here.

Assay [1] deals with Inosine-5'-monophosphate dehydrogenase 1 (Homo sapiens, UniProt P20839). The experiment in a line: Inhibition of human IMPDH1 by Spectrophotometry.
For the next assay, the system named is K562. The experiment in a line: Antiproliferative activity against human K562 cells after 72 hrs by MTS assay. Format: functional, cell-based. The settings on record: K562, 72 h. (Formazan colour is commonly taken as a measure of viable cells.)

Chain of Inosine-5'-monophosphate dehydrogenase 1 (P20839 whole entry): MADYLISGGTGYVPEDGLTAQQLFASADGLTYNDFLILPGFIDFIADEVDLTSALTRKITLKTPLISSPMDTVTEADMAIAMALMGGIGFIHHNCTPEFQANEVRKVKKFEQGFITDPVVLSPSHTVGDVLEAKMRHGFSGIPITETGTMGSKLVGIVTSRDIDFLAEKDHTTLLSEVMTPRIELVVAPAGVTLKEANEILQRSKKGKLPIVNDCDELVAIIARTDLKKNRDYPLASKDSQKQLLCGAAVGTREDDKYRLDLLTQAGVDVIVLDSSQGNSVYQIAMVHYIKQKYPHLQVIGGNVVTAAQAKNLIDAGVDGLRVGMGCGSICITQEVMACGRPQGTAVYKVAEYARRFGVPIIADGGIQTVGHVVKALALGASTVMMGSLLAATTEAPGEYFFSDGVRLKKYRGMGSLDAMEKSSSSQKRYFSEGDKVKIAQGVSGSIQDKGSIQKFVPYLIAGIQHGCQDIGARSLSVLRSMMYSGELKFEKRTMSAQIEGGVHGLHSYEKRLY

The Ki is the dissociation constant of the complex between target and ligand, obtained from inhibition or displacement. High values mean a looser hold on the target, low ones a stronger hold on the target. As to `CCc1nc(N)c2ncn([C@H]3O[C@@H](COP(=O)(O)OP(=O)(O)OC[C@H]4O[C@@H](c5nc(C(N)=O)cs5)[C@H](O)[C@@H]4O)[C@H](O)[C@@H]3O)c2n1`, in assay [1], affinity was put at a Ki of 0.001 µM. This counts as single-digit nanomolar.
A word on the IC50: it is the concentration that inhibits the measured activity by half. High values mean weaker potency in that assay, low ones greater potency in that assay. In the case of `CCc1nc(N)c2ncn([C@H]3O[C@@H](COP(=O)(O)C(F)(F)P(=O)(O)OC[C@H]4O[C@@H](c5nc(C(N)=O)cs5)[C@H](O)[C@@H]4O)[C@H](O)[C@@H]3O)c2n1`, the Ki in assay [1] was determined as 0.013 µM. The molecule also gave an IC50 with K562 of 4.7 µM.
Taken in the same sequence, the figures for `NC(=O)c1csc([C@@H]2O[C@H](CNS(=O)(=O)CS(=O)(=O)NC[C@@H]3O[C@H](n4cnc5c(N)ncnc54)[C@@H](O)[C@H]3O)[C@@H](O)[C@H]2O)n1` were 23.6 µM and more than 100 µM.
The corresponding values for `NC(=O)c1csc([C@@H]2O[C@H](COP(=O)(O)CC(=O)NC[C@@H]3O[C@H](n4cnc5c(N)ncnc54)[C@@H](O)[C@H]3O)[C@@H](O)[C@H]2O)n1` are 14.2 µM and more than 100 µM.
Taken in the same sequence, the figures for `COc1c(C)c2c(c(O)c1CCOP(=O)(O)CCP(=O)(O)O)C(=O)OC2` [MYCOPHENOLIC ETHYLENEBIS] were 5.55 µM and more than 100 µM.
